Experimental data published in PMC5584945, “Evaluation of robenidine analog NCL195 as a novel broad-spectrum antibacterial agent” (PLoS ONE, 2017).
Where two headings read alike, the source gives them in different places.

How the values were obtained:
S. aureus = assay: MIC, broth micro-dilution (CLSI); type: cell-based, Staphylococcus aureus; conditions: for MIC / MIC50 / MIC90: Staphylococcus aureus
MCF7 = assay: In vitro cytotoxicity, WST-1; type: cell-based; conditions: Homo sapiens, 24 h exposure, read-out: IC50 values ± SEM
Excerpt: (§1) In order to ensure minimal off target mammalian cell cytotoxicity, we assayed NCL812, NCL195 and NCL219 for in vitro cytotoxicity using a panel of adherent mammalian cell lines: Caco-2 (human colorectal adenocarcinoma cell line), HEL 299 (non-cancerous human lung fibroblast cell line), Hep G2 (human hepatocellular carcinoma cell line), MDBK (normal bovine kidney cell line) and MCF7 (human mammary gland adenocarcinoma cell line). Cell lines were maintained in Dulbecco’s Modified Eagle’s Medium (DMEM; […] After 24 h incubation, media was removed, washed once with medium without antibiotics and fresh medium supplemented with 10% (vol/vol) FBS was added. […] Following exposure for 24 h, WST-1 reagent was added to each well at a final concentration of 10%. […] The IC50 value for each compound against each cell line was determined via non-linear regression (three parameters) using GraphPad Prism v6 software. The robustness of assays was confirmed with selected cell lines (Hep G2 and MDBK) seeded onto a 96–well Microwell Nunclon Delta Surface plate (Thermo Scientific Nunc; Cat No: 136101) at 5 × 10^4 cells per well.

Caco-2 = assay: In vitro cytotoxicity, WST-1; type: cell-based; conditions: Homo sapiens, 24 h exposure, read-out: IC50 values ± SEM
Excerpt: as §1

[1] = tested on: panel of mammalian cell lines (Caco-2, HEL 299, Hep G2, MDBK, MCF7); assay: In vitro cytotoxicity, WST-1, all cell lines tested; type: cell-based; conditions: lower bound over all the cell lines tested
Excerpt: as §1

Hep G2 = assay: Real-time cell viability, RealTime-Glo MT; type: cell-based, human; conditions: 2 or 8 μg/ml, up to 20 h post-treatment
S. pneumoniae D39 = assay: Minimum bactericidal concentration (MBC); type: cell-based; conditions: Streptococcus pneumoniae, 99.9% colony count reduction, read-out: MBC
[2] = tested on: Enterococcus faecalis ATCC 29212; assay: MIC, broth micro-dilution (CLSI), control strain; type: cell-based
Protocol: MICs for NCL812 and its analogs (serial two-fold dilutions commencing at 128 μg/ml) were determined (in duplicate) in round bottom 96-well microtitre trays (Sarstedt 82.1582.001), using the broth micro-dilution method recommended by the Clinical and Laboratory Standards Institute (CLSI). […] MIC50, MIC90 and MIC range for NCL812, NCL195 and NCL219 were calculated against each S. pneumoniae, S. aureus or VRE isolate. To assess the potential activity of NCL195 against Gram-negative bacteria, MICs against Acinetobacter spp, E. coli, K. pneumoniae, P. aeruginosa, Proteus spp and Neisseria meningitidis were performed in the presence or absence of 0.08 mM-20 mM EDTA in a standard checkerboard assay.

[3] = S2 Table isolates, absence of FBS

Cc1ccc(/C=N/Nc2cc(N/N=C/c3ccc(C)cc3)nc(N)n2)cc1 [NCL195, 4,6-bis(2-((E)-4-methylbenzylidene)hydrazinyl)pyrimidin-2-amine]
2 µg/mL: MIC (S. aureus; ATCC 29213 / MSSA, ATCC29213 MSSA (ST5), absence of FBS, read-out: MIC) | MIC (S. aureus; ATCC 49775 / MSSA, ATCC 49775 (MSSA), absence of FBS, read-out: MIC) | MIC (S. aureus; IRISH 1 – HA-EMRSA (ST8), absence of FBS, read-out: MIC) | MIC (S. aureus; MRSA / USA300, USA 300 - MRSA (ST8), absence of FBS, read-out: MIC) | MIC (S. aureus; MRSA, AUS2-MRSA (ST239), absence of FBS, read-out: MIC) | MIC (S. aureus; MRSA, Classic–HA-MRSA (ST250), absence of FBS, read-out: MIC) | MIC (S. aureus; MRSA, ST398–CA-MRSA-V (ST398), absence of FBS, read-out: MIC) | MIC50 (S. aureus; [3]) | MIC90 (S. aureus; [3]) | MIC (S. aureus; UK 15 PVL+ – HA-EMRSA (ST22), absence of FBS, read-out: MIC) | MIC (S. aureus; UK 15 – HA-EMRSA (ST22), absence of FBS, read-out: MIC) | MIC (S. aureus; UK 17 – HA-EMRSA (ST247), absence of FBS, read-out: MIC)
4 fold: Fold increase in MIC in the presence of serum (S. aureus; S. aureus 49775, human, horse or mouse serum)
12.8 ± 0.1 µg/mL: IC50 (Caco-2)
4 µg/mL: MIC (S. aureus; ATCC 12600 / MSSA, ATCC12600 [Xen29] (MSSA), 10% FBS) | MIC (S. aureus; IRISH 2 – HA-EMRSA (ST8), 10% FBS, read-out: MIC) | MIC (S. aureus; MRSA, AUS3-MRSA (ST239), 10% FBS, read-out: MIC) | MIC (S. aureus; MRSA, NY JAPAN – HA MRSA (ST5), 10% FBS, read-out: MIC) | MIC (S. aureus; MRSA, WA2–CA-MRSA (ST78), 10% FBS, read-out: MIC) | MIC (S. aureus; MRSA, WA3–CA-MRSA (ST5), 10% FBS, read-out: MIC) | MIC (S. aureus; MRSA, WA84–CA-MRSA (ST45), 10% FBS, read-out: MIC) | MIC (S. aureus; TAIWAN PVL+ – CA-cMRSA (ST59), 10% FBS, read-out: MIC) | MIC (S. aureus; UK 16 – HA- EMRSA (ST36), 10% FBS, read-out: MIC) | MIC ([2]; ATCC29212, absence of FBS)
8 µg/mL: MIC (S. aureus; ATCC 29213 / MSSA, ATCC29213 MSSA (ST5), 10% FBS, read-out: MIC) | MIC (S. aureus; ATCC 49775 / MSSA, ATCC 49775 (MSSA), 10% FBS, read-out: MIC) | MIC (S. aureus; IRISH 1 – HA-EMRSA (ST8), 10% FBS, read-out: MIC) | MIC (S. aureus; MRSA / USA300, USA 300 - MRSA (ST8), 10% FBS, read-out: MIC) | MIC (S. aureus; MRSA, AUS2-MRSA (ST239), 10% FBS, read-out: MIC) | MIC (S. aureus; MRSA, Classic–HA-MRSA (ST250), 10% FBS, read-out: MIC) | MIC (S. aureus; MRSA, ST398–CA-MRSA-V (ST398), 10% FBS, read-out: MIC) | MIC50 (S. aureus; S2 Table isolates, 10% FBS) | MIC90 (S. aureus; S2 Table isolates, 10% FBS) | MIC (S. aureus; UK 15 PVL+ – HA-EMRSA (ST22), 10% FBS, read-out: MIC) | MIC (S. aureus; UK 15 – HA-EMRSA (ST22), 10% FBS, read-out: MIC) | MIC (S. aureus; UK 17 – HA-EMRSA (ST247), 10% FBS, read-out: MIC) | MBC (S. pneumoniae D39)
1 µg/mL: MIC (S. aureus; ATCC 12600 / MSSA, ATCC12600 [Xen29] (MSSA), absence of FBS) | MIC (S. aureus; IRISH 2 – HA-EMRSA (ST8), absence of FBS, read-out: MIC) | MIC (S. aureus; MRSA, AUS3-MRSA (ST239), absence of FBS, read-out: MIC) | MIC (S. aureus; MRSA, NY JAPAN – HA MRSA (ST5), absence of FBS, read-out: MIC) | MIC (S. aureus; MRSA, WA2–CA-MRSA (ST78), absence of FBS, read-out: MIC) | MIC (S. aureus; MRSA, WA3–CA-MRSA (ST5), absence of FBS, read-out: MIC) | MIC (S. aureus; MRSA, WA84–CA-MRSA (ST45), absence of FBS, read-out: MIC) | MIC (S. aureus; TAIWAN PVL+ – CA-cMRSA (ST59), absence of FBS, read-out: MIC) | MIC (S. aureus; UK 16 – HA- EMRSA (ST36), absence of FBS, read-out: MIC)
32 µg/mL: MIC ([2]; ATCC29212, 10% FBS)
4 to 8 µg/mL: MIC range (S. aureus; S2 Table isolates, 10% FBS)
1 to 2 µg/mL: MIC range (S. aureus; 23 isolates) | MIC range (S. aureus; [3])
> 10 µg/mL: IC50 [1]
40.1 ± 0.2 µg/mL: IC50 (MCF7)
no measurable effect on cell viability: Effect on cell viability (real-time) (Hep G2)
